Reference: US20190328687A1, “Antibacterial Compounds” (priority 2014, published 2019)
Read-outs that look alike come from different tables or passages of the source. Peptide text beside a SMILES is read from it. * marks the point of attachment. βNA = c1ccc2cc(N*)ccc2c1

Key:
Salmonella typhimurium = conditions: cited from earlier work
E. coli 7KOΔtolC = assay: Cell sensitivity assay (growth, OD600)
Experimental: (§1) Overnight cultures of E. coli 7KO or 7KOΔtolC strains are used to inoculate fresh aliquots of LB media which are then incubated at 30° C., 200 rpm for 2.5 h. 40 μL aliquots of each culture are subsequently added to 40 μL of LB media containing 2× the desired final niclosamide concentration (i.e., resulting in a final 2-fold dilution series from 5 μM down to 20 nM) or a 0 μM control in a 384-well microplate. The plate is incubated at 30° C., 200 rpm for 4 h. Culture turbidity is monitored by optical density at 600 nm in order to calculate percentage growth relative to the 0 μM control for each strain. Data are the mean of at least two independent experiments±SEM.
Overnight cultures of E. coli 7KOΔtolC are used to inoculate fresh aliquots of LB media which are incubated at 30° C., 200 rpm for 2.5 h. […] Culture turbidity is monitored by optical density at 600 nm in order to calculate percentage growth relative to the 0 μM control for each strain. […]
This procedure applies to all experiments yielding growth curves for Gram negative bacterial strains generated in the presence of niclosamide or 2-chloro-4-nitroaniline, unless noted otherwise below or in the individual Figure Descriptions. […] Culture turbidity is monitored by optical density at 600 nm (OD600) 4 h post-challenge. […]

[1] = test system: E. coli 7KOΔtolC strains over-expressing nitroreductase candidates from plasmid pUCX; assay: Cell sensitivity assay, nitroreductase over-expressing strains; type: cell-based; conditions: for IC50: Escherichia coli
E. coli 6KO = assay: Toxicity to E. coli host strain; type: cell-based; conditions: even if not over-expressing an active nitroreductase
From the text: Without wishing to be bound by theory, the applicants hypothesise that a key difference between the niclosamide-sensitive SOS-R2 and niclosamide-resistant 6KO strains is that the former carry a deletion of the tolC gene, which encodes an efflux pump capable of exporting numerous xenobiotic and other compounds directly across both cell membranes of Gram negative bacterial cells.

[2] = test system: Mycobacterium tuberculosis; conditions: cited from earlier work
M. tuberculosis = conditions: cited from earlier work
[3] = test system: quorum sensing system in Pseudomonas aeruginosa; conditions: among FDA-approved drugs tested; cited from earlier work
[4] = test system: methicillin resistant Staphylococcus aureus (MRSA; ATCC43300); assay: Heatmap growth inhibition assay, MRSA; conditions: single agent
E. coli 7KO = assay: Cell sensitivity assay (growth, OD600)
Experimental: as §1
Overnight cultures of E. coli 7KO are used to inoculate fresh aliquots of LB media which are then incubated at 30° C., 200 rpm for 2.5 h. 40 μL aliquots of each culture are subsequently added to 40 μL of LB media containing 2× the desired final niclosamide concentration (i.e., resulting in a final 2-fold dilution series from 10 μM down to 160 nM) or a 0 μM control, as well as either 0 μM, 25 μM or 50 μM PaβN in a 384-well microplate. An overnight culture of 7KOΔtolC is treated in the same manner, but without addition of PaβN. […] Culture turbidity is monitored by optical density at 600 nm in order to calculate percentage growth relative to the 0 μM niclosamide control for each series. […]

[5] = test system: Staphylococcus aureus ATCC 43300 (MRSA); assay: Growth inhibition of Gram positive bacteria: IC50 measurements; conditions: ATCC43300|MRSA, 4 h, read-out: IC50 against Staphylococcus aureus ATCC 43300 (MRSA)
Experimental: (§2) Data are the mean of two independent replicates (using duplicate technical replicates for each independent experiment) and error bars indicate standard error of the mean.
(§3) Data are the mean of two technical replicates.
(§4) 15 mL tubes containing 2 mL tryptic soy broth (TSB) were inoculated with the Gram positive bacterial strains Staphylococcus aureus ATCC 43300 (MRSA), Bacillus thuringiensis P.1.IPS-80 serovar israelensis, or Listeria welshimeri ATCC 35897. Strains were incubated overnight at 37° C. with shaking at 200 rpm. The following day, the overnight cultures were diluted in fresh TSB to give an OD600 of approximately 0.3. Duplicate 40 μL aliquots of this were then added to individual wells of a sterile 384 well plate, containing 40 μL TSB medium supplemented with serial dilutions of 2× niclosamide or nitazoxanide, including 0 μM controls. Culture turbidity was monitored by optical density at 600 nm at 4 h post-challenge. Percentage growth inhibition values were calculated by comparison of the niclosamide- or nitazoxanide-challenged cells with the unchallenged control for each strain, after subtracting the initial absorbance values (t=0 h). […]

[6] = test system: Listeria welshimeri ATCC 35897; assay: as above; conditions: ATCC35897, 4 h, read-out: IC50 against Listeria welshimeri ATCC 35897
Experimental: as §2, §3, §4

[7] = Heatmap growth inhibition assay, drug-resistant clinical isolates; conditions: read-out: IC50 against clinical isolates
pyruvate oxidoreductases = conditions: cited from earlier work
E. coli 7KOΔtolC (DE3) = assay: 7KOΔtolC(DE3) cell sensitivity assay
Experimental: Overnight cultures of E. coli 7KOΔtolC (DE3) strains overexpressing either E. coli NfsA (NfsA_Ec), E. coli NfsB (NfsB_Ec) or containing a plasmid only (pET28) control are used to inoculate fresh aliquots of assay media (LB media supplemented with 50 μg·mL^−1 kanamycin and 50 μM IPTG) which are incubated at 30° C., 200 rpm for 2.5 h. 40 μL aliquots of each culture are then added to 40 μL aliquots of assay media containing 2× the desired final concentration of nitazoxanide (i.e., resulting in a final 2-fold dilution series from 20 down to 2.5 μM) or a 0 μM media only control. The plate is then incubated at 30° C., 200 rpm for 4 h. Culture turbidity is monitored by optical density at 600 nm in order to calculate percentage growth relative to the 0 μM control for each strain. Data are the mean of at least two independent experiments±SEM.
Individual wells of a 96-well microtitre plate containing 100 μL LB supplemented with 50 μg mL^−1 are inoculated in duplicate with 7KOΔtolC(DE3) strains overexpressing E. coli nfsA, E. coli nfsB or a pET28 empty plasmid control. Strains are incubated overnight at 30° C. in a Heidolph titramax platform shaker at 900 rpm. 30 μL of each overnight culture is used to inoculate duplicate cultures of 600 μL LB supplemented with 50 μg mL^−1 kanamycin and 50 μM IPTG in a 96 well deep culture plate (Axygen). Cultures are incubated at 30° C., 1200 rpm for 2.5 h. 40 μL aliquots from each culture are then added to individual wells of a sterile 384 well plate, containing 40 μL LB medium supplemented with 100 μg mL^−1 kanamycin, 50 μM IPTG and serial dilutions of nitazoxanide, including 0 μM controls. Each nitroreductase over-expression strain is tested in duplicate (independent replicates). Culture turbidity is monitored by optical density at 600 nm 4 h post-challenge. Percentage growth values are calculated by comparison of the nitazoxanide-challenged cells with the unchallenged control, after subtracting the initial absorbance values (t=0 h). Microtitre plate absorbance readings are measured using an Eon Biotek Reader (BioTek Instruments Inc.).

[8] = test system: efflux pumps over-expressed in P. aeruginosa; conditions: growth inhibition in presence of levofloxacin; cited from earlier work
AcrAB-TolC = AcrAB-TolC (Escherichia coli, UniProt P02930+P31224); conditions: cited from earlier work
AcrAB-TolC, sequence (P31224 whole entry): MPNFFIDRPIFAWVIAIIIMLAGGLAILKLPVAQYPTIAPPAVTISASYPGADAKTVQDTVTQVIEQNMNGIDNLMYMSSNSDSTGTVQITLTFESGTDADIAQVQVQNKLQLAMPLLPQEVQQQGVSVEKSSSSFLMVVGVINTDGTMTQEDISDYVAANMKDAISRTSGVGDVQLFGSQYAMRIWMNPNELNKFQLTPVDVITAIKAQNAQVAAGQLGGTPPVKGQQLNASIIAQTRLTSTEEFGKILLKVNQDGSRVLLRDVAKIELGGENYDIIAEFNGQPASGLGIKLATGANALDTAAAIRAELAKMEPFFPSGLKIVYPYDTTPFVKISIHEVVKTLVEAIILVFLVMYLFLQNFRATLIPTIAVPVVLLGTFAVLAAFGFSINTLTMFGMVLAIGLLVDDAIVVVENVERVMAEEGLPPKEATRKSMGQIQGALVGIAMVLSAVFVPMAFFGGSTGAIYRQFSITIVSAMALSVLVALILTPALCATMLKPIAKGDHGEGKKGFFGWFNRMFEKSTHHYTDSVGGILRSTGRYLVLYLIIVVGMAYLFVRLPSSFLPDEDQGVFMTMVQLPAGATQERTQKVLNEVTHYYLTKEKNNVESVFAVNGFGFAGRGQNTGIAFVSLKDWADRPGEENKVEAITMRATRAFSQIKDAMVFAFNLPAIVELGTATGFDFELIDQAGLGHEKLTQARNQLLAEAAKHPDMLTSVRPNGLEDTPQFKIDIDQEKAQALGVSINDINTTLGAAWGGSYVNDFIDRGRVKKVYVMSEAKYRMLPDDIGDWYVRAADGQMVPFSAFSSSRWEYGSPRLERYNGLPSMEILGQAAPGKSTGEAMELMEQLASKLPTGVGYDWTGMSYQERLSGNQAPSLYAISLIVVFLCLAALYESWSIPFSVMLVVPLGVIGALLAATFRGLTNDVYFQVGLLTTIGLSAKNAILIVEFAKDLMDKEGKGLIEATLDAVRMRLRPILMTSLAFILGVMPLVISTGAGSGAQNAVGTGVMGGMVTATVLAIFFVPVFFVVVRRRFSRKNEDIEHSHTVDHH
AcrAB-TolC, sequence (P02930 23-493): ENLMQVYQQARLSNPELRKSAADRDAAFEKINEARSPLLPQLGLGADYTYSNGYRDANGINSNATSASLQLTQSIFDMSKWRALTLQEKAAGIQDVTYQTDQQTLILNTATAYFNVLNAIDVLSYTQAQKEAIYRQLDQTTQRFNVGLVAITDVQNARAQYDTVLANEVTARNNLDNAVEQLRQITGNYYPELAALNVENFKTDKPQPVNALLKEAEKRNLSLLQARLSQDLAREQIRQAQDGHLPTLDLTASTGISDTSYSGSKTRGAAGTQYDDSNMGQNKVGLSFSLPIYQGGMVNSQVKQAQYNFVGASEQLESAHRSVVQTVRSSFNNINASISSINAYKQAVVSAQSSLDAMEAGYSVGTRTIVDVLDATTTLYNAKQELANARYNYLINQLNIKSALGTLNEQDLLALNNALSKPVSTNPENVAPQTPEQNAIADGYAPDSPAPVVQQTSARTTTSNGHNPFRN
AcrAB-TolC, sequence (P0AE06 25-397, further chain): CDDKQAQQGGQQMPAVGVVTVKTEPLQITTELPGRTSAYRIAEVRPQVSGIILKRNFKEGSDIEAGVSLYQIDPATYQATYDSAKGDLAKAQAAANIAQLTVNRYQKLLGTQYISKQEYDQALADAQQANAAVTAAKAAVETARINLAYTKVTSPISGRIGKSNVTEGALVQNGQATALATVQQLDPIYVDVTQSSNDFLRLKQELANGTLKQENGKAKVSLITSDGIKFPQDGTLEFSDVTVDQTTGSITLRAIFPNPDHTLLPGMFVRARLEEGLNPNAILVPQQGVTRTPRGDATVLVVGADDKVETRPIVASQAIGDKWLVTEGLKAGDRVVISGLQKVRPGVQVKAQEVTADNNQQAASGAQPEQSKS

For `Nc1ccc([N+](=O)[O-])cc1Cl` [2-chloro-4-nitroaniline], the Mutagenicity (Salmonella typhimurium) is listed as “mutagenic product” and the “Toxicity relative to niclosamide” value (E. coli 7KOΔtolC; growth inhibition of 7KOΔtolC, FIG. 15) is listed as “at least three orders of magnitude less toxic than niclosamide”.

For `O=C(O)c1cc(Cl)ccc1O` [5-chlorosalicyclic acid], the Mutagenicity (Salmonella typhimurium) is given as “non-mutagenic”.

For `O=C(Nc1ccc([N+](=O)[O-])cc1Cl)c1cc(Cl)ccc1O` [Niclosamide, N-(2′-chloro-4′-nitrophenyl)-5-chlorosalicylamide], the “IC50, strains over-expressing NfsA, NfsB and AzoR” value ([1]; 7KOΔtolC, pUCX NfsA, NfsB or AzoR) was “low micromolar”, the IC50 ([1]; read-out: IC50, MdaB over-expressing strain) was 83 nM and the IC50 ([1]; read-out: IC50, NemA over-expressing strain) was 300 nM. The IC50 ([1]; read-out: IC50, empty plasmid control strain) was 47 nM, the “Toxicity to 6KO strain” value (E. coli 6KO) was “no longer found to be toxic” and the MIC [2] was 0.5 to 1 µg/mL. The “Activity against non-replicating M. tuberculosis” value ([2]; grown in low oxygen conditions) was “active”, the “Effect on membrane potential” value (M. tuberculosis) was “uncoupled the membrane potential” and the Anti-quorum sensing activity [3] was “highest anti-quorum sensing activity”. For the same compound, the “Sensitivity of MRSA (concentration level)” value [4] was “nanomolar concentrations”, the IC50 (E. coli 7KOΔtolC; Escherichia coli, 4 h, read-out: IC50 for 7KOΔtolC) was 120 nM and the IC50 (E. coli 7KO; Escherichia coli, 7KO, 4 h, read-out: IC50 for 7KO) was > 5000 nM. The IC50 [5] was 132 nM, the IC50 [6] was 284 nM and the IC50 [7] was > 20000 nM.

In the case of `CC(=O)Oc1ccccc1C(=O)Nc1ncc([N+](=O)[O-])s1` [Nitazoxanide, 2-acetyloxy-N-(5-nitro 2-thiazolyl)benzamide], the “Effect on membrane potential” value (M. tuberculosis) is listed as “disrupts membrane potential and pH homeostasis”, the “Effect on membrane potential” value (M. tuberculosis; listed as nitazoxanide) is listed as “uncoupled the membrane potential” and the “Inhibition of pyruvate oxidoreductases” value (pyruvate oxidoreductases) is listed as “inhibits pyruvate oxidoreductases”. For the same compound, the “Toxicity relative to niclosamide (less toxic)” value (E. coli 7KOΔtolC (DE3); 7KOΔtolC (DE3) cells) was “approximately 2 orders of magnitude”, the “Effect of NfsA and NfsB over-expression on toxicity” value (E. coli 7KOΔtolC (DE3); 7KOΔtolC (DE3), pET28 NfsA or NfsB) was “able to defend against nitazoxanide toxicity” and the IC50 (E. coli 7KOΔtolC (DE3); Escherichia coli, 4 h, read-out: IC50 in 7KOΔtolC (DE3) cells) was 5200 nM. The IC50 [5] was 2900 nM and the IC50 [6] was 8780 nM.

For `N=C(N)NCCC[C@H](NC(=O)[C@@H](N)Cc1ccccc1)C(=O)Nc1ccc2ccccc2c1` [PAβN, phenylalanine-arginine β-napthylamide] (H-Phe-Arg-βNA), the “Activity against P. aeruginosa efflux pumps” value [8] is given as “active against each of the efflux pumps”, the “Activity against AcrAB-TolC” value (AcrAB-TolC) is given as “active against AcrAB-TolC” and the “Sensitivity of MRSA (concentration level)” value [4] is given as “micromolar levels”. For the same compound, the “Effect of PAβN on niclosamide sensitivity” value (E. coli 7KO; 25 μM or 50 μM PAβN, niclosamide 10 μM down to 156 nM) was “promote niclosamide sensitivity in the 7KO strain in a dose-dependent manner”.
